Data set [1] deals with Mycobacterium tuberculosis. Briefly: Antituberculosis activity against Mycobacterium tuberculosis H37Rv after 4 days by alamar blue assay. Conditions: 96 h. Format: functional, organism-based. For orientation: Alamar Blue is a resazurin reagent that responds to reducing activity.
A further data set has as its system Hepatitis C virus. The data set is described as follows: Antiviral activity against HCV infected in human HuH7 clone B cells assessed as inhibition of viral RNA replication after 5 days by RT-PCR based replicon assay relative to control. Format: functional, Hepacivirus hominis. The note with it: Huh-7, 120 h. On the technique in general: In antiviral work, replicon cells carry a viral genome segment that copies itself.

The nature of data set [2]: Selectivity index, ratio of IC50 for african green monkey (Cercopithecus aethiops) Vero cells to IC50 for chloroquine-resistant Plasmodium falciparum W2. The note with it: read-out: Ratio IC50. Format: toxicity, cell-based.
The test system of data set [3] is Plasmodium falciparum. Briefly: Antimalarial activity against chloroquine-resistant Plasmodium falciparum W2 assessed as parasite LDH activity after 72 hrs by malstat reagent method. Format: functional, organism-based. The note with it: W2, 72 h.
In data set [4] the test system is Plasmodium falciparum. The data set is described as follows: Antimalarial activity against chloroquine-sensitive Plasmodium falciparum D6 assessed as parasite LDH activity after 72 hrs by malstat reagent method. Format: functional, organism-based. Conditions: D6, 72 h.
Data set [5] deals with Mus musculus. The data set is described as follows: Toxicity in Plasmodium berghei infected mice (Mus musculus) at 10 mg/kg, perorally or subcutaneously administered 2 hrs post infection. Format: organism-based. Also on record: dose 10 mg/kg, route oral. Conditions: in vivo, po.
Another data set relates to Vero. Briefly: Cytotoxicity against african green monkey Vero cells by neutral red assay. The note with it: Chlorocebus sabaeus. Format: cell-based.
Data set [6] can be described thus: Selectivity index, ratio of IC50 for african green monkey (Cercopithecus aethiops) Vero cells to IC50 for chloroquine-sensitive Plasmodium falciparum D6. Format: toxicity, cell-based. The note with it: read-out: Ratio IC50.
Data set [7] in a line: Cytotoxicity against human HuH7 cells at 10 uM after 5 days by RT-PCR. Format: cell-based. Conditions: huh-7, 120 h.
The next data set concerns Staphylococcus aureus. The data set is described as follows: Antibacterial activity against methicillin-resistant Staphylococcus aureus by modified NCCLS method. Format: functional, organism-based.
The subject of data set [8] is Mus musculus. Briefly: Toxicity in Plasmodium berghei infected mice (Mus musculus) at 10 mg/kg, perorally or subcutaneously QD for 2 days measured on day 2. The note with it: in vivo, po, 48 h. Also on record: dose 10 mg/kg, route oral. Format: organism-based.
The subject of data set [9] is Mus musculus. Briefly: Toxicity in Plasmodium berghei infected mice (Mus musculus) at 10 mg/kg, perorally or subcutaneously QD for 2 days measured on day 5. The note with it: in vivo, po, 48 h. Also on record: dose 10 mg/kg, route oral. Format: organism-based.
Another data set has as its system Plasmodium berghei. Briefly: Antimalarial activity against Plasmodium berghei infected in mice (Mus musculus) assessed as parasitaemia at 10 mg/kg, perorally or subcutaneously administered 2 hrs post infection daily for 2 days measured on day 5 by microscopy. Format: functional. Conditions: route oral.
Data set [10] concerns Mycobacterium intracellulare. The data set is described as follows: Antibacterial activity against Mycobacterium intracellular by after 4 days alamar blue assay. Format: functional, organism-based.
For data set [11], the system named is Mus musculus. Briefly: Toxicity in Plasmodium berghei infected mice (Mus musculus) assessed as loss of weight at 10 mg/kg, perorally or subcutaneously QD for 2 days measured on day 5. Format: organism-based. Also on record: dose 10 mg/kg, route oral. Conditions: in vivo, po, 48 h.
In data set [12] the test system is Mus musculus. Briefly: Toxicity in Plasmodium berghei infected mice (Mus musculus) assessed as loss of weight at 10 mg/kg, perorally or subcutaneously QD on day 1. Format: organism-based. The note with it: in vivo, po. On the set-up: dose 10 mg/kg, route oral.
Data set [13] relates to Mus musculus. The data set is described as follows: Toxicity in Plasmodium berghei infected mice (Mus musculus) assessed as mortality at 10 mg/kg, perorally or subcutaneously QD for 2 days measured on day 3. The note with it: in vivo, po, 48 h. Format: organism-based. Also on record: dose 10 mg/kg, route oral.
The subject of data set [14] is Mus musculus. The data set is described as follows: Toxicity in Plasmodium berghei infected mice (Mus musculus) assessed as dehydration at 10 mg/kg, perorally or subcutaneously QD on day 1. On the set-up: dose 10 mg/kg, route oral. Conditions: in vivo, po. Format: organism-based.
The test system of data set [15] is Mus musculus. The data set is described as follows: Toxicity in Plasmodium berghei infected mice (Mus musculus) assessed as mortality at 10 mg/kg, perorally or subcutaneously QD for 2 days measured on day 4. Format: organism-based. Also on record: dose 10 mg/kg, route oral. Conditions: in vivo, po, 48 h.
Data set [16] relates to Mus musculus. The data set is described as follows: Toxicity in Plasmodium berghei infected mice (Mus musculus) assessed as reduction of movements at 10 mg/kg, perorally or subcutaneously QD on day 1. Format: organism-based. Also on record: dose 10 mg/kg, route oral. Conditions: in vivo, po.
The mark [17] stands for this setting: Mycobacterium intracellulare, 96 h.
[18] abbreviates: Mycobacterium intracellulare, 96 h, read-out: IC50.

Values after ≈ are worked out from the molar mass of the structure shown. Active and inactive are the calls of the source. The rule behind the calls is not given here. Some results are limits rather than exact numbers.

The values that follow come from ChEMBL document CHEMBL1155437, “Anti-infective discorhabdins from a deep-water alaskan sponge of the genus Latrunculia” (J Nat Prod, 2010).

As to `CO[C@H]1/C=C/O[C@@]2(C)Oc3c(C)c(O)c4c(O)c(c(/C=N/N5CCN(C)CC5)c(O)c4c3C2=O)NC(=O)/C(C)=C\C=C\[C@H](C)[C@H](O)[C@@H](C)[C@@H](O)[C@@H](C)[C@H](OC(C)=O)[C@@H]1C` [RIFAMPIN], in data set [1], 0.21 µM (≈ 0.173 µg/mL) was the least that counted as inhibitory (MIC).
For `O=C1C[C@H]2S[C@H]3C[C@]2(C=C1Br)C1=C(N3)C(=O)c2[nH]cc3c2C1=NCC3` [DISCORHABDINE A], the EC90 in the data set with Hepatitis C virus is under 10000 nM. Further, the selectivity ratio in data set [2] and in [6] was 130 each time. Also, the half-inhibitory concentration (IC50) in the data set on Plasmodium falciparum [3] was found to be 53 nM; in the data set with Plasmodium falciparum [4] it was 53 nM; with Vero, 6800 nM; in the data set with Staphylococcus aureus it was 4800 nM; in [10] (setting [18]), 360 nM. Moreover, the Activity result is recorded as “Non-toxic” in the data set on Mus musculus [5]; “Active” in data set [7]; “Toxic” in the data set with Mus musculus [8]; “Toxic” in the data set with Mus musculus [9]; 6.6% with Plasmodium berghei; over 25% with Mus musculus [11]. Further, the values for the MIC (in data set [1]; in the data set with Staphylococcus aureus; in data set [10] (setting [17])) were 7.7 µM (≈ 3.21 µg/mL), 12 µM (≈ 5 µg/mL) and 0.74 µM (≈ 0.308 µg/mL), respectively.
For the molecule `O=C1C2=C(C3=NCCc4c[nH]c1c43)C1(C=C(Br)C(O)C(Br)=C1)CCN2` (configuration not stated) [DIHYDRODISCORHABDIN C], the EC90 with Hepatitis C virus was under 10000 nM. Also, the Activity entry with Mus musculus [12] is listed as “Toxic”; with Mus musculus [5], “Non-toxic”; with Mus musculus [13] it was “Toxic”; in [7], “Active”; in the data set on Mus musculus [14] it was “Toxic”; with Mus musculus [15], “Toxic”. In addition, the Activity result in the data set with Mus musculus [16] is reported as “Toxic”. The selectivity ratio was found to be 75 in data set [2] and 58 in data set [6]. Also, the IC50 in the data set on Plasmodium falciparum [3] is 130 nM; in the data set on Plasmodium falciparum [4], 170 nM; in the data set with Vero, 9800 nM; with Staphylococcus aureus, 13000 nM; in [10], “Not Active”. The same molecule yielded an MIC in data set [1] of 14 µM (≈ 6.51 µg/mL). In addition, the MIC result in [10] was “inactive”.
In the data set with Staphylococcus aureus, `O=C(O)c1cn(C2CC2)c2cc(N3CCNCC3)c(F)cc2c1=O` [CIPROFLOXACIN] showed an IC50 of 1100 nM and an MIC of 3 µM (≈ 0.994 µg/mL). For the same molecule, 1.5 µM (≈ 0.497 µg/mL) was the least that counted as inhibitory in data set [10] (setting [17]) (MIC).
Regarding `NNC(=O)c1ccncc1` [ISONIAZID], in data set [1], it took 3.2 µM (≈ 0.439 µg/mL) to inhibit growth (MIC).
Take `O=C1C(Br)=CC2(C=C1Br)CCNC1=C2C2=NCCc3c[nH]c(c32)C1=O` [DISCORHABDIN C]: the EC90 in the data set with Hepatitis C virus is under 10000 nM. Further, the selectivity ratio is 1.4 in data set [2] and 1 in data set [6]. For the same molecule, the IC50 was 2000 nM in the data set on Plasmodium falciparum [3]; 2800 nM in the data set with Plasmodium falciparum [4]; 6800 nM in data set [1]; 2800 nM with Vero; 3200 nM in the data set on Staphylococcus aureus; 130 nM in [10] (setting [18]). Further, the MIC in data set [1] is 8 µM (≈ 3.71 µg/mL); with Staphylococcus aureus, 11 µM (≈ 5.09 µg/mL); in [10] (setting [17]) it was 0.17 µM (≈ 0.0787 µg/mL). For the same molecule, the result in data set [7] was Active.

As usually defined, the MIC is the lowest concentration that inhibits growth of the organism. As a reminder, the EC90 is the concentration at which the effect reaches the 90% level. The term IC50 denotes the concentration needed to halve the response being measured.
